Consider 1 molecule from US5380715A, “Ap4 A as a hypotensive agent” (Fujirebio Inc., priority 1992, dated 1995).

Entries after “also recorded” stand apart in the source; their conditions may differ.

For experiment [1] the following is noted: words; cited from earlier work.
The next experiment relates to isolated rat heart. Briefly: Protective effect on deoxygenation-induced cardiac damage (Langendorff heart). The arrangement: species or system male SD rats. Conditions: 1×10^-4 M, 33 min global ischemia; words. As for the experimental part: The protective effect of Ap4A against ischemia by use of a Langendorff heart (Aronson, CE. and Serlick, ER. Toxicol. Appl. Pharmac. 38, 479-488 (1976)) was tested.
Deoxygenation-induced cardiac damage according to the method of Aronson & Serlich (Toxical. appl. Parmac. 38, 479-488, 1976) with slight modifications. Male SD rats (Charles River Japan Inc.) weighing 320 to 390 g were anesthetized with ether, and heart quickly isolated. The isolated rat heart was mounted and perfused with Krebs-Henselite solution (118 mM NaCl, 4.7 mM KCl, 2.5 mM CaCl2, 1.2 mM MgSO4, 1.2 mM KH2 PO4, 25 mM NaHCO3 and 10 mM glucose) bubbled with 95% O2 +5% CO2 at a flow rates of 14 ml/min. at 37° C. The myocardial function was monitored by the left ventricular pressure (L.V.P.), differential values of L.V.P. (dp/dt), heart rate (H.R.) and perfused pressure (P.P.) through a branch of an aortic canula mounted on the heart. After equilibrate for 40 min., global ischemia was produced by stopping the perfusing solution and the heart was incubated for 33 min. in 50 ml Krebs-Henselite bubble with N2 gas (control). 33 min. later, the buffer solution was removed. The perfusion was re-started, and the myocardial function was measured. The heart was incubated in Krebs-Henselite solution containing Ap4A 1×10^-4 M during global ischemia.

As for `Nc1ncnc2c1ncn2[C@@H]1O[C@H](COP(=O)(O)OP(=O)(O)OP(=O)(O)OP(=O)(O)OC[C@H]2O[C@@H](n3cnc4c(N)ncnc43)[C@H](O)[C@@H]2O)[C@@H](O)[C@H]1O` [Ap4A, diadenosine 5',5'"-p^1,p^4 -tetraphosphate], in experiment [1], the arrhythmic effect result is “an arrhythmic effect”. Also, the “prevention of cardiac damage (loss of L.V.P., dp/dt and H.R.)” value in the experiment on isolated rat heart was “significantly prevented cardiac damage (loss of L.V.P., dp/dt and H.R.) induced by deoxygenation; also recorded: the above-mentioned impairment in the untreated Langendorff heart was found to be prevented”.
